Data from patent US3980646A, “3-Methylpyrazole-5-carboxylates and medicaments containing these compounds” (Wulfing; Johann A., priority 1974, dated 1976).
Values joined by “and” are separate entries in the source; they are usually repeats but may differ in a detail not shown here. Identical values can stand only once.

What was measured:
free fatty acids (FFS) [1] = assay: influence on the free fatty acids (FFS) after repeated application once daily for 4 days; type: in vivo, Rats male (Wistar); conditions: for free fatty acids (FFS): individual animals; for free fatty acids (FFS) / free fatty acids (FFS), mean (x10): 4 × appl. 50 mg/kg p.o.; for free fatty acids (FFS), mean (x10): control 1.27, p<0.001
Method: Rats male, repeated application once daily for 4 days,
on the 4th day groups of 10 animals were killed at
intervals of 30 minutes, 1 hour and 2 hours after the
last application by ether narcosis and heart puncture.
10 controls were given esophagus probe, animals starved
for 17 hours before killing (cf. FIG. 4)
7-[3-(N-methyl-2-hydroxyethyl)-amino-2-
hydroxypropyl]-1,3-dimethylxanthine-3-
methylpyrazole-5-carboxylate 50 mg/kg peroral
3-methylpyrazole-5-carboxylic acid (3-MPC)
eq./kg 15 mg/kg peroral

free fatty acids (FFS) [2] = assay: influence on the free fatty acids (FFS) in starved (hyperlipacidaemic) animals, hunger lipolysis; type: in vivo, rats (Wistar)
Method: Investigations on a total of 260 Wistarrats were conducted with 7-[3-(N-methyl-N-2-hydroxyethyl)-amino-2-hydroxypropyl]-1,3-dimethylxanthine-3-methylpyrazole-5-carboxylate.
Examination of the influence of 7-[3-(N-methyl-N-2-hydroxy-
ethyl)-amino-2-hydroxypropyl]-1,3-dimethylxanthine-3-methyl-
pyrazole-5-carboxylate on the serum fatty acids (FFS) of
Male Rats, starve for 17 hours
Dose: 100 mg/kg body weight, oral by esophagus probe,
Blood removal: 1 hour after application
pyrazole-5-carboxylate on the free fatty acids (FFS) in
starved animals 1 hour after application
Comparative examinations of the influence of 7-[3-(N-methyl-
carboxylic acid on the free fatty acids (FFS) in starved
animals 1 hour after application
pyrazole-5-carboxylic acid on the free fatty acids (FFS)
in starved animals 6 hours after application

serum triglycerides (TG) = assay: influence on the serum triglycerides (TG) in normal animals; type: in vivo, Rats (Wistar); conditions: for TG: starve for 5 hours; for TG, mean (x): 1 hour
Method: Rats, starve for 5 hours
40 mg/kg body weight of active principle according to
the invention, oral by esophagus probe 1 hour before
12 mg/kg body weight of 3-methylpyrazole-5-carboxylic
acid, equim. dosage, 1 hour before removal of blood
Dose: 10 mg/kg body weight of active principle according to the
invention, oral by esophagus probe 1 hour before blood removal
Dose: 3 mg/kg body weight of 3-methylpyrazole-5-carboxylic acid,
equim. dosage, oral by esophagus probe 1 hour before

Triglycerides = assay: triglycerides in hyperlipacidaemic rats treated with octylphenol polyethylene glycolether; type: in vivo, Male rats (Wistar)
Method: Male rats, starve for 22 hours, ether narcosis, heart puncture
Dose: 1000 mg/kg of octylphenyl polyethylene glycolether i.v.
6 hours before blood removal
Dose: 100 mg/kg of 7-[3-(N-methyl-N-2-hydroxyethyl)-amino-2-
hydroxypropyl]-1,3-dimethylxanthine-3-methylpyrazole-5-
carboxylate by esophagus probe, 6 hours, 4 hours and
2 hours before blood removal

**Q.** `CN(CCO)CC(O)Cn1cnc2c1c(=O)n(C)c(=O)n2C.Cc1cc(C(=O)O)[nH]n1` (stereo not drawn) [7-[3-(N-methyl-N-2-hydroxyethyl)-amino-2-hydroxypropyl]-1,3-dimethylxanthine-3-methylpyrazole-5-carboxylate] was tested. Which “free fatty acids (FFS)” value (free fatty acids (FFS) [1]; 1 h after last appl.) did it give?
**A.** The value was 0.75 μval/ml plasma and 0.42 μval/ml plasma and 0.45 μval/ml plasma and 0.56 μval/ml plasma and 0.67 μval/ml plasma and 0.54 μval/ml plasma and 0.86 μval/ml plasma and 0.63 μval/ml plasma and 0.98 μval/ml plasma and 0.89 μval/ml plasma.

**Q.** And the “free fatty acids (FFS)” value (free fatty acids (FFS) [1]; 2 h after last appl.)?
**A.** Its value is 0.79 μval/ml plasma and 0.58 μval/ml plasma and 0.94 μval/ml plasma and 0.80 μval/ml plasma and 1.10 μval/ml plasma and 1.07 μval/ml plasma and 0.84 μval/ml plasma and 0.90 μval/ml plasma and 0.97 μval/ml plasma and 0.83 μval/ml plasma.

**Q.** What about the “free fatty acids (FFS), mean (x10)” value (free fatty acids (FFS) [1]; 30' after last application) of the same compound?
**A.** Its value is 0.87 μval/ml plasma.

**Q.** What about the “free fatty acids (FFS), mean (x10)” value (free fatty acids (FFS) [1]; 1 h after last appl.) of the same compound?
**A.** Its value is 0.68 μval/ml plasma.

**Q.** And the “free fatty acids (FFS), mean (x10)” value (free fatty acids (FFS) [1]; 2 h after last appl.)?
**A.** The value was 0.88 μval/ml plasma.

**Q.** And the “weakening of effect on free fatty acid content by pretreatment” value (free fatty acids (FFS) [1]; repeated application, result in words)?
**A.** The value was “does not have this effect”.

**Q.** And the FFS (free fatty acids (FFS) [2]; Table 2, individual animals, male rats, starve for 17 hours, 100 mg/kg oral, 1 hour, 100 mg/kg)?
**A.** The FFS was 0.29 μval/ml and 0.34 μval/ml and 0.54 μval/ml and 0.47 μval/ml and 0.67 μval/ml and 0.46 μval/ml and 0.44 μval/ml and 0.43 μval/ml and 0.39 μval/ml and 0.48 μval/ml and 0.51 μval/ml and 0.45 μval/ml.

**Q.** What about the “FFS, mean (φ)” value (free fatty acids (FFS) [2]; Table 2, mean, male rats, starve for 17 hours, 100 mg/kg oral, 1 hour, control φ 0.91, p<0.001) of the same compound?
**A.** The value was 0.46 μval/ml.

**Q.** What about the FFS (free fatty acids (FFS) [2]; Table 4 dose-effect, starved animals, 1 hour, 2.0 mg/kg, n 10, control 0.87, ***p<0.001) of the same compound?
**A.** The FFS was 0.51 μval/ml.

**Q.** What about the FFS (free fatty acids (FFS) [2]; Table 4 dose-effect, starved animals, 1 hour, 2.5 mg/kg, n 13, control 0.86) of the same compound?
**A.** The FFS was 0.50 μval/ml.

**Q.** What about the FFS (free fatty acids (FFS) [2]; Table 4 dose-effect, starved animals, 1 hour, 5 mg/kg, n 5, control 0.83) of the same compound?
**A.** The FFS was 0.43 μval/ml.

**Q.** And the FFS (free fatty acids (FFS) [2]; Table 4 dose-effect, starved animals, 1 hour, 10 mg/kg, n 10, control 0.97)?
**A.** Its FFS is 0.53 μval/ml.

**Q.** And the FFS (free fatty acids (FFS) [2]; Table 4 dose-effect, starved animals, 1 hour, 20 mg/kg, n 5, control 0.90)?
**A.** Its FFS is 0.56 μval/ml.

**Q.** What about the FFS (free fatty acids (FFS) [2]; Table 4 dose-effect, starved animals, 1 hour, 30 mg/kg, n 4, control 1.02) of the same compound?
**A.** The FFS was 0.54 μval/ml.

**Q.** What about the FFS (free fatty acids (FFS) [2]; Table 4 dose-effect, starved animals, 1 hour, 40 mg/kg, n 5, control 1.02) of the same compound?
**A.** The FFS was 0.48 μval/ml.

**Q.** And the FFS (free fatty acids (FFS) [2]; Table 4 dose-effect, starved animals, 1 hour, 50 mg/kg, n 10, control 1.08, **p<0.001)?
**A.** The FFS was 0.40 μval/ml.

**Q.** What about the FFS (free fatty acids (FFS) [2]; Table 4 dose-effect, starved animals, 1 hour, 100 mg/kg, n 15, control 0.91, *p<0.001) of the same compound?
**A.** Its FFS is 0.46 μval/ml.

**Q.** And the FFS (free fatty acids (FFS) [2]; Table 5, individual animals, starved, 1 hour after application, 50 mg/kg)?
**A.** The FFS was 0.39 μval/ml and 0.44 μval/ml and 0.46 μval/ml and 0.40 μval/ml and 0.35 μval/ml and 0.45 μval/ml and 0.37 μval/ml and 0.32 μval/ml and 0.41 μval/ml.

**Q.** And the “FFS, mean” value (free fatty acids (FFS) [2]; Table 5, mean, n=10, starved, 1 hour after application, 50 mg/kg, control 1.08, p<0.001)?
**A.** Its value is 0.40 μval/ml.

**Q.** And the FFS (free fatty acids (FFS) [2]; Table 6, individual animals, starved, 6 hours after application, 50 mg/kg BW p.o., 50 mg/kg)?
**A.** Its FFS is 0.39 μval/ml and 0.35 μval/ml and 0.43 μval/ml and 0.58 μval/ml and 0.54 μval/ml and 0.63 μval/ml and 0.77 μval/ml and 0.52 μval/ml and 0.51 μval/ml and 0.96 μval/ml and 0.59 μval/ml and 0.78 μval/ml and 0.53 μval/ml and 0.44 μval/ml and 0.64 μval/ml and 0.85 μval/ml and 0.32 μval/ml.

**Q.** What about the “FFS, mean (x)” value (free fatty acids (FFS) [2]; Table 6, mean, n=21, starved, 6 hours after application, 50 mg/kg BW p.o., control 0.86, p<0.001) of the same compound?
**A.** Its value is 0.57 μval/ml.

**Q.** And the “lipolysis-inhibiting effect compared with free 3-methylpyrazole-5-carboxylic acid” value (free fatty acids (FFS) [2]; equimolar dosage, especially 6 hours after application)?
**A.** The value was “more pronounced than that of the free 3-methylpyrazole-5-carboxylic acid”.

**Q.** What about the TG (serum triglycerides (TG); Table 7, individual animals, 40 mg/kg oral 1 hour before removal of blood, 40 mg/kg) of the same compound?
**A.** Its TG is 71.6 mg % and 22.9 mg % and 15.8 mg % and 18.6 mg % and 41.5 mg % and 40.1 mg % and 58.7 mg % and 32.9 mg % and 45.8 mg %.

**Q.** And the “TG, mean (x)” value (serum triglycerides (TG); Table 7, mean, 40 mg/kg oral, control x = 66.4, p<0.0027>Ko)?
**A.** Its value is 36.3 mg %.

**Q.** What about the TG (serum triglycerides (TG); Table 8, individual animals, 10 mg/kg oral 1 hour before blood removal, 10 mg/kg) of the same compound?
**A.** Its TG is 48.7 mg % and 54.4 mg % and 83.1 mg % and 55.8 mg % and 74.4 mg % and 81.6 mg % and 51.5 mg % and 40.1 mg %.

**Q.** What about the “TG, mean (x)” value (serum triglycerides (TG); Table 8, mean, 10 mg/kg oral, control x = 86.3, p<0.05>Ko) of the same compound?
**A.** The value was 59.8 mg %.

**Q.** What about the “serum triglyceride level of normal animals” value (serum triglycerides (TG); doses down to 10 mg/kg, result in words) of the same compound?
**A.** Its value is “significantly reduces the serum triglyceride level”.

**Q.** And the triglyceride level (Triglycerides; hyperlipacidaemic rats, result in words)?
**A.** Its triglyceride level is “significant reduction in the triglyceride level”.

**Q.** And the TG (Triglycerides; individual animals, octylphenol polyethylene glycolether 1000 mg/kg i.v. 6 hours before, 100 mg/kg per os 6, 4 and 2 hours before killing)?
**A.** Its TG is 644.4 mg % and 687.4 mg % and 701.6 mg % and 707.4 mg % and 610.0 mg % and 703.1 mg % and 695.9 mg % and 711.7 mg %.

**Q.** And the “TG, mean (x)” value (Triglycerides; mean, octylphenol polyethylene glycolether 1000 mg/kg i.v., 100 mg/kg per os 6, 4 and 2 hours before killing, control x = 777.2, p<0.001)?
**A.** Its value is 687.0 mg %.
